“Also recorded” adds a separate entry of the source.
Assays:
[1] = Adverse events, open label single dose clinical study of diamorphine hydrochloride nasal spray in children; format: in vivo; details: single intranasal dose
Description: (§1) An open label, single dose, sparse sampling pharmacokinetic dentate study in children aged from 1-<16 years attending hospital clinics for minor day surgery or laser treatment and requiring intravenous cannulation and opiate analgesia for their routine clinical management. The cannulation site on the child's arm was numbed with local anaesthetic cream, and a cannula was inserted. The child was then anaesthetized and a baseline blood sample taken. The child received 1-3 sprays of intranasal diamorphine, depending on their weight, and another blood sample was taken as soon as possible (from 0-10 minutes) post dose. Up to four further pharmacokinetic blood samples were taken from the cannula for the purposes of the study spaced out over the following time windows: 10-20 minutes, 20-30 minutes, 30-45 minutes, 45-60 minutes, 60-120 minutes and between 120 minutes post dose and removal of the cannula. Plasma acetylmorphine, morphine, morphine-3-glucuronide, and morphine-6-glucuronide concentrations were determined. The data from all children taking part in the trial was pooled and analysed together to avoid excessive blood sampling. Population pharmacokinetic parameters were estimated by using a non-linear mixed effects dentate approach. Adverse events, vital signs, nasal tolerance and pain scores were also monitored. […]

[2] = 0.1 mg/kg of body weight, intravenous injection; cited from earlier work
human plasma proteins = details: cited from earlier work
[3] = FLACC total pain scores, open label single dose clinical study of diamorphine hydrochloride nasal spray in children; format: in vivo; details: 0.1 mg/kg body weight intranasally; children aged 1-<16 years
Description: as §1, with “Up to four further pharmacokinetic blood samples were taken from the cannula for the purposes of the study spaced out over the following time windows: 10-20 minutes, 20-30 minutes, 30-45 minutes, 45-60 minutes, 60-120 minutes and between 120 minutes post dose and removal of the cannula.” left out, “Population pharmacokinetic parameters were estimated by using a non-linear mixed effects dentate approach.” left out
For assessing the effectiveness of the Diamorphine Hydrochloride Nasal Spray pain scores were measured. The investigators or nurses measured the FLACC scores. The total score was based on 5 categories: (F) Face; (L) Legs; (A) Activity; (C) Cry; (C) Consolability; are scored between […]. […]

[4] = Respiratory depression (clinically notable changes in vital signs) in the clinical study; format: in vivo, children; details: single intranasal dose, 0.1 mg/kg body weight
Description: as §1

[5] = in presence of water degrades; cited from earlier work
[6] = cited from earlier work

## CC(=O)Oc1ccc2c3c1OC1[C@@H](OC(C)=O)C=C[C@H]4[C@@H](C2)N(C)CC[C@]314 (some centres unmarked) [diamorphine, 3,6-diacetyl ester of morphine]
[1]
  Incidence of adverse events (in words): very low
[2]
  Respiratory depressant effect (in words): respiratory depressant effect is reported
Human plasma proteins
  Protein binding (in words): does not bind to protein
[3]
  Analgesic effectiveness (in words): effective alone in producing the analgesic effects
[4]
  Respiratory depression (clinically notable changes in vital signs): free from the major side effects such as respiratory depression; also recorded: No respiratory depressant effect was observed
[5]
  Stability in liquid dosage form (in words): highly unstable in liquid dosage form
[6]; in man
  half-life: two to three
[6]; in vivo
  Duration of analgesic effect: three to four

— patent publication US20150231130A1, “PHARMACEUTICAL COMPOSITION COMPRISING DIAMORPHINE FOR INTRANASAL ADMINISTRATION” (WOCKHARDT LIMITED, priority 2012, published 2015)
